Laboratory results published in patent US20140228540A1, “POLYPEPTIDES THAT BIND TISSUE INHIBITOR OF METALLOPROTEINASE TYPE THREE (TIMP-3), COMPOSITIONS AND METHODS” (Amgen Inc., priority 2009, published 2014).
Where two headings read alike, the source gives them in different places.

Legend:
[1] = test system: HTB-94 cells; assay: Accumulation of TIMP-3 in the medium of cultured HTB-94 cells; type: cell-based
Method: This example describes an assay to evaluate the accumulation of TIMP-3 in the medium of cultured cells. HTB-94™ cells (a chondrocytic cell line available from the American Type Culture Collection, Manassas, Va.) are plated to 24-well tissue culture plates at 1×10̂5 cells per well in 1 ml growth medium (RPM11640, 10% FBS, 1% PSG), and incubated at 37 C, 5% CO2 overnight. The cells are then washed once with PBS, and the wells are replenished with 250 microL serum-free medium (RPM11640, 1% PSG; designated SF in the tables below) to which is added the polypeptide being tested or a control (for example medium containing heparin, 1 mg/ml). Proteins to be tested are diluted to appropriate concentrations, for example as shown in the Tables below, and added to the cells. Cells are then incubated at 37 C, 5% CO2 for two additional days, day 2 conditioned medium (CM) samples are collected and clarified by centrifugation (i.e., for 5 minutes at 10K RPM) and the supernatant fluid is collected and stored at −20 C until assayed. Analysis is done on 100 microL CM samples, either by Western blot or by using a standard human TIMP-3 ELISA as per the manufacturer's protocol (R&D Systems Inc., Minneapolis, Minn.).

[2] = test system: biotinylated recombinant human or mouse TIMP-3; assay: TIMP-3 AlphaScreen binding assay
Method: Peptides were also evaluated by AlphaScreen® (Amplified Luminescent Proximity Homogeneous Assay; PerkinElmer, Waltham, Mass.) a very sensitive non-radioactive homogeneous assay technology that allows the screening of a large range of biological interactions and activities, substantially according to the manufacturer's instructions. Briefly, all dilutions are made in AlphaScreen® Buffer: [40 mM HEPES pH 7.5, 100 mM NaCl, 1 mM CaCl2, 0.1% BSA, 0.05% Tween-20]. The LRP-1 peptides are titrated in a separate polypropylene 96-well plate (Falcon) starting at 4 microM concentration and then diluted serially 3-fold for 12-points, with the last point buffer only. First 2 microL/well of protein titration curve is added to white, small volume, 384-well assay plate (Greiner Bio-One, Stonehouse, UK) in duplicate. Next, 2 microL of biotinylated (AFS, in-house conjmicroGation) recombinant human or mouse TIMP-3, is added at 12 nM (or 3 nM final assay concentration) to the assay plate. Lastly, in subdued light 4 microL of a mixture of streptavidin donor beads, anti-mouse IgG acceptor beads (PerkinElmer) both diluted to 20 microG/mL (10 microG/mL final assay concentration) and 2 nM (1 nM final concentration) rat-anti-HA (clone3F10)-HRP (Roche Diagnostics) is added to the plates. Plates containing 8 microL final assay volume are covered with TopSeal A (to prevent evaporation), spun quickly at 1000 rpm, and incubated overnight (covered with foil to prevent light exposure) before reading on Fusion plate reader (PerkinElmer) using AlphaScreen® parameters (excitation 680 nm and emission 520-620 nm). Data is analyzed using GraphPad Prism 4.01 software. Binding to TIMP-3 is reported as total signal (cps).

[3] = target: TIMP-3; assay: Binding ELISA of LRP-1 peptides to TIMP-3 (Table 2; format and species not specified); set-up: species or system human or mouse
[4] = Assay 2, read-out: Binding ELISA EC50 (nm) Assay 2
[5] = Assay 1, read-out: Binding ELISA EC50 (nm) Assay 1

Molecule	TIMP-3 (ng/ml) in conditioned medium ([1]; Table 6, peptides 2 microM)	AlphaScreen total signal (cps) Assay 1 [2]	AlphaScreen total signal (cps) Assay 2 [2]	TIMP-3 (ng/ml) in conditioned medium ([1]; Table 7, peptides 2 microM)	further results
LA24: LRP-1 peptide monomer, amino acids 3453-3493	0.41 ng/mL	2,200 cps	2,000 cps		
LA21: LRP-1 peptide monomer, amino acids 3334-3373	1.82 ng/mL	2,200 cps			
LA24-25: LRP-1 peptide multimer, amino acids 3453-3535		290,000 cps	130,000 cps	2.48 ng/mL	
LA3-4: LRP-1 peptide multimer, amino acids 854-930		9,000 cps	3,500 cps		
LA3: LRP-1 peptide monomer, amino acids 854-894	0.60 ng/mL	2,200 cps	2,000 cps		
LA20: LRP-1 peptide monomer, amino acids 2904-2943 (CNASSQFLCSSGRCVAEALLCNGQDDCGDSSDERGCHINE)	0.96 ng/mL	2,200 cps			EC50 [3, 4]: > 10000 nM
LA5: LRP-1 peptide monomer, amino acids 931-975	0.94 ng/mL	2,200 cps	2,000 cps		EC50 [3, 4]: 1080 nM
LA21-23: LRP-1 peptide multimer, amino acids 3334- (end not printed)		3,000 cps		4.46 ng/mL	EC50 [3, 5]: 243 nM
LA16: LRP-1 peptide monomer, amino acids 2734-2773	0.94 ng/mL	2,200 cps			
LA23-24: LRP-1 peptide multimer, amino acids 3413-3493		2,200 cps	2,000 cps	1.38 ng/mL	
LA25-26: LRP-1 peptide multimer, amino acids printed as 3594-3574		20,000 cps	5,000 cps	9.30 ng/mL	
LA18-20: LRP-1 peptide multimer, amino acids 2818- (end not printed)		3,000 cps			EC50 [3, 5]: ~300 nM
LA3-5: LRP-1 peptide multimer, amino acids 854-975		4,000 cps	9,000 cps	4.22 ng/mL	
LA17: LRP-1 peptide monomer, amino acids 2774-2817	1.06 ng/mL	2,200 cps			EC50 [3, 4]: > 5000 nM
LA18: LRP-1 peptide monomer, amino acids 2818-2857	1.11 ng/mL	2,200 cps			EC50 [3, 4]: > 10000 nM
LA6: LRP-1 peptide monomer, amino acids 976-1014	1.07 ng/mL	2,200 cps			
LA27: LRP-1 peptide monomer, amino acids 3575-3612		2,200 cps		0.65 ng/mL	
LA22: LRP-1 peptide monomer, amino acids 3374-3412	0.96 ng/mL	2,200 cps			
LA25: LRP-1 peptide monomer, amino acids 3494-3535		5,000 cps	2,000 cps	1.24 ng/mL	
LA4-5: LRP-1 peptide multimer, amino acids 895-975		2,200 cps	2,000 cps	2.68 ng/mL	
LA26: LRP-1 peptide monomer, amino acids 3536-3574		2,200 cps		1.01 ng/mL	
LA5-7: LRP-1 peptide multimer, amino acids 931-1061		2,000 cps	8,000 cps		
Cluster III: LRP-1 peptide, amino acids 2524- (end not printed)					Accumulation of TIMP-3 in conditioned medium by Western blot [1]: did not result in significant accumulation
LA24-26: LRP-1 peptide multimer, amino acids 3453- (end not printed)		150,000 cps	120,000 cps	10.38 ng/mL	
Cluster I: LRP-1 peptide, amino acids 27-114 of LRP-1 (SEQ ID NO:1) (protein, listed as Homo sapiens) CSPKQFACRDQITCISKGWRCDGERDCPDGSDEAPEICPQSKAQRCQPNEHNCLGTELCVPMSRLCNGVQDCMDGSDEGPHCRELQGN	0.65 ng/mL			0.87 ng/mL	TIMP-3 (ng/ml) in conditioned medium ([1]; Table 5, polypeptide 0.5 microM): 1.02 ng/mL; TIMP-3 (ng/ml) in conditioned medium ([1]; Table 5, polypeptide 1 microM): 0.86 ng/mL; TIMP-3 (ng/ml) in conditioned medium ([1]; Table 5, polypeptide 2 microM): 0.81 ng/mL; TIMP-3 (ng/ml) in conditioned medium ([1]; Table 8, polypeptide 0.5 microM): 1.41 ng/mL; TIMP-3 (ng/ml) in conditioned medium ([1]; Table 8, polypeptide 1 microM): 1.19 ng/mL; TIMP-3 (ng/ml) in conditioned medium ([1]; Table 8, polypeptide 2 microM): 1.44 ng/mL; Accumulation of TIMP-3 in conditioned medium by Western blot [1]: did not result in significant accumulation
LA13-15: LRP-1 peptide multimer, amino acids 2605- (end not printed) (protein) CGVGEFRCRDGTCIGNSSRCNQFVDCEDASDEMNCSATDCSSYFRLGVKGVLFQPCERTSLCYAPSWVCDGANDCGDYSDERDCPGVKRPRCPLNYFACPSGRCIPMSWTCDKEDDCEHGEDETHCNKF		1,200 cps			
LA15-17: LRP-1 peptide multimer, amino acids 2696- (end not printed) (protein) CPLNYFACPSGRCIPMSWTCDKEDDCEHGEDETHCNKFCSEAQFECQNHRCISKQWLCDGSDDCGDGSDEAAHCEGKTCGPSSFSCPGTHVCVPERWLCDGDKDCADGADESIAAGCLYNST		90,000 cps	70,000 cps	4.70 ng/mL	
LA3-10: LRP-1 peptide multimer, not listed in Table 1 (protein) CQPGEFACANSRCIQERWKCDGDNDCLDNSDEAPALCHQHTCPSDRFKCENNRCIPNRWLCDGDNDCGNSEDESNATCSARTCPPNQFSCASGRCIPISWTCDLDDDCGDRSDESASCAYPTCFPLTQFTCNNGRCININWRCDNDNDCGDNSDEAGCSHSCSSTQFKCNSGRCIPEHWTCDGDNDCGDYSDETHANCTNQATRPPGGCHTDEFQCRLDGLCIPLRWRCDGDTDCMDSSDEKSCEGVTHVCDPSVKFGCKDSARCISKAWVCDGDNDCEDNSDEENCESLACRPPSHPCANNTSVCLPPDKLCDGNDDCGDGSDEGELCDQ			100,000 cps		EC50 [3, 5]: 45.5 nM; EC50 ([3]; Assay 3, read-out: Binding ELISA EC50 (nm) Assay 3): 32.5 nM
